Measurements as given in patent US5750531A, “Pyrimidine derivatives and processes for the preparation thereof” (Yuhan Corporation, priority 1994, dated 1998).
Structures can show the parent of a compound that is named as a salt.

Assays:
[1] = target: proton pump(H^+ /K^+ ATPase); assay: Inhibition of proton pump(H^+ /K^+ ATPase) activity; type: biochemical; conditions: pH 6.0, 37° C., 30 minutes preincubation and 30 minutes reaction; read-out: IC50 Test compound
Experimental: Test 1: Inhibition of proton pump(H^+ /K^+ ATPase) activity
A proton pump enzyme source was prepared by the same method as in Experiment 1-1 of WO 94/14795. Further, the inhibitory effect of proton pump activity was measured by the same method as in Experiment 1-2 of WO 94/14795.
Namely, the proton pump activity stimulated by Mg^++ was used as a negative comparative group, and the activity stimulated by Mg^++ and K^+ was used as a positive comparative group. The comparative compound was omeprazole.
Test tubes were divided into 4 groups: Group 1 as negative comparative group(n=3), Group 2 as positive comparative group(n=3), Group 3(n=5×2) to be administered with the compound of the present invention and Group 4(n=5×2) to be administered with the comparative compound.
The inhibitory effects of Groups 3 and 4 on proton pump activity were measured by employing the compound prepared in Example and omeperazole, respectively, each of which was dissolved in dimethylsulfoxide at 5 different concentrations.
To each of Groups 1, 2, 3 and 4 were added 100 μl of magnesium chloride(40 mM) dissolved in 40 mM Tris-HCl buffer(pH 6.0) and 100μ of the enzyme source. Then, 50μ of potassium chloride(50 mM) and 50 μl of ammonium chloride(6 mM) dissolved in 40 mM Tris-HCl buffer(pH 6.0) were added to all groups except for Group 1.
10 μl of dimethylsulfoxide was added to each of Groups 1 and 2; and to Group 3 was added 10 μl of the solution in which the compound prepared in Example was dissolved in dimethylsulfoxide at 5 different concentrations(n=5×2). To Group 4, 10 μl of the solution prepared by dissolving omeprazole in dimethylsulfoxide at 5 different concentrations(37.6, 21.4, 12.2, 7.0 and 4.0 μM) was added(n=5×2). 40 mM Tris-HCl buffer(pH=6.0) was added thereto so as to make the total volume 400 μl.
Thereafter, the test tubes of each Group were placed at 37° C. for 30 minutes for the preincubation. 100 μl of ATP solution (6.6 mM) was added until the reaction volume became 500 μl. After the reaction was carried out at 37° C. for 30 minutes, 25% cold trichloroacetic acid was added to terminate the enzyme reaction. The released inorganic phosphate was measured by an automatic analyzer(Express 550, Corning).
The difference between Group 1 and Group 2 represents the proton pump activity activated by K^+ only. The inhibition percentages of Groups 3 and 4 were calculated from Litchfield-wilcoxon equation[see, e.g., J. pharmacol. Exp. Ther., 96, 99(1949)]. The concentrations of the test compounds which inhibit 50% of the proton pump activity are represented as IC50 in Table 1.

gastric secretion = assay: Inhibition of gastric secretion (pylorus ligation, Shay method); type: in vivo, Male Sprague-Dawley rats; conditions: 20 mg/kg intraduodenally, 5 hours; for Rel. Conc.: acid concentration relative to omeprazole; for Relative Acid Output: acid output relative to omeprazole; for Rel. Vol.: gastric juice volume relative to omeprazole
Experimental: Inhibition of gastric secretion […] Under ether anesthesia, the abdomen was incised, and the pylorus was ligated. […] After closing the abdominal cavity, the rats were placed for 5 hours and then killed by cervical dislocation. The stomach was extracted to obtain gastric juice. The gastric juice was centrifuged at 1,000 g to remove precipitates. The amount and acidity of the gastric juice were measured. Relative volumes, relative acid concentrations and relative acid outputs of the test compounds were calculated from equations(I), (II) and (III) and the results are shown in Table 2. […] Group 3) (II) […] (III)

Row | SMILES | IC50 [1] [µM] | Rel. Conc. (gastric secretion) | Relative Acid Output (gastric secretion) | Rel. Vol. (gastric secretion)
1 | Cc1cc(F)ccc1Nc1nc(C)c(C)c(N2CCc3ccccc3[C@@H]2C)n1.Cl [Example 14, (S)-5,6-dimethyl-2-(2-methyl-4-fluorophenylamino)-4-(1-methyl-1,2,3,4-tetrahydroisoquinolin-2-yl)pyrimidine hydrochloride] | 0.7 | 0.3 | 0.72 | 0.53
2 | Cc1nc(Nc2ccc(F)cc2)nc(N2CCc3ccccc3C2C)c1C.Cl (stereo not drawn) [Example 15, 5,6-dimethyl-2-(4-fluorophenylamino)-4-(1-methyl-1,2,3,4-tetrahydroisoquinolin-2-yl)pyrimidine hydrochloride] | 1.6 | 1.06 | 0.99 | 0.8
3 | Cc1nc(Nc2ccc(F)cc2)nc(N2CCc3ccccc3[C@H]2C)c1C.Cl [Example 16, (R)-5,6-dimethyl-2-(4-fluorophenylamino)-4-(1-methyl-1,2,3,4-tetrahydroisoquinolin-2-yl)pyrimidine hydrochloride] | 1.5 | 1.24 | 1.13 | 0.96
4 | Cc1nc(Nc2ccc(F)cc2)nc(N2CCc3ccccc3[C@@H]2C)c1C.Cl [Example 17, (S)-5,6-dimethyl-2-(4-fluorophenylamino)-4-(1-methyl-1,2,3,4-tetrahydroisoquinolin-2-yl)pyrimidine hydrochloride] | 1.8 | 0.97 | 0.89 | 0.82
5 | Cc1nc(N(C)c2ccccc2)nc(N2CCc3ccccc3C2C)c1C.Cl (stereo not drawn) [Example 18, 5,6-dimethyl-2-(N-methylphenylamino)-4-(1-methyl-1,2,3,4-tetrahydroisoquinolin-2-yl)pyrimidine hydrochloride] | 4.2 | 1.82 | 1.39 | 1.72
6 | Cc1nc(N(C)c2ccccc2)nc(N2CCc3ccccc3[C@H]2C)c1C.Cl [Example 19, (R)-5,6-Dimethyl-2-(N-methylphenylamino)-4-(1-methyl-1,2,3,4-tetrahydroisoquinolin-2-yl)pyrimidine hydrochloride] | 3.9 | 1.86 | 1.43 | 1.8
7 | Cc1nc(N(C)c2ccccc2)nc(N2CCc3ccccc3[C@@H]2C)c1C.Cl [Example 20, (S)-5,6-dimethyl-2-(N-methylphenylamino)-4-(1-methyl-1,2,3,4-tetrahydroisoquinolin-2-yl)pyrimidine hydrochloride] | 4.4 | 1.75 | 1.28 | 1.66
8 | Cc1nc(Nc2ccccc2)nc(N2CCc3ccccc3C2C)c1C.Cl (stereo not drawn) [Example 21, 5,6-dimethyl-2-(phenylamino)-4-(1-methyl-1,2,3,4-tetrahydroisoquinolin-2-yl)pyrimidine hydrochloride] | 1.5 | 0.88 | 0.97 | 1.06
9 | Cc1nc(Nc2ccccc2)nc(N2CCc3ccccc3[C@H]2C)c1C [Example 22, (R)-5,6-Dimethyl-2-(4-phenylamino)-4-(1-methyl-1,2,3,4-tetrahydroisoquinolin-2-yl)pyrimidine hydrochloride] | 1.4 | 0.8 | 0.90 | 0.99
10 | Cc1nc(Nc2ccccc2)nc(N2CCc3ccccc3[C@@H]2C)c1C [Example 23, hydrochloride] | 2 | 0.78 | 0.88 | 0.92
11 | Cc1ccccc1Nc1nc(C)c(C)c(N2CCc3ccccc3C2C)n1.Cl (stereo not drawn) [Example 24, 5,6-Dimethyl-2-(2-methylphenylamino)-4-(1-methyl-1,2,3,4-tetrahydroisoquinolin-2-yl)pyrimidine hydrochloride] | 0.6 | 1.03 | 1.01 | 1
12 | Cc1ccc(Nc2nc(C)c(C)c(N3CCc4ccccc4C3C)n2)cc1.Cl (stereo not drawn) [Example 25, 5,6-dimethyl-2-(4-methylphenylamino)-4-(1-methyl-1,2,3,4-tetrahydroisoquinolin-2-yl)pyrimidine hydrochloride] | 1.4 | 0.8 | 0.92 | 1.06
13 | CCc1nc(Nc2ccc(F)cc2C)nc(N2CCc3ccccc3C2C)c1C.Cl (stereo not drawn) [Example 26, 5-methyl-6-ethyl-2-(2-methyl-4-fluorophenylamino)-4-(1-methyl-1,2,3,4-tetrahydroisoquinolin-2-yl)pyrimidine hydrochloride] | 0.8 | 0.53 | 0.73 | 0.6
14 | CCc1nc(Nc2ccc(F)cc2)nc(N2CCc3ccccc3C2C)c1C.Cl (stereo not drawn) [Example 27, 5-methyl-6-ethyl-2-(4-fluorophenylamino)-4-(1-methyl-1,2,3,4-tetrahydroisoquinolin-2-yl)pyrimidine hydrochloride] | 2.1 | 0.61 | 0.81 | 0.7
15 | CCc1nc(N(C)c2ccccc2)nc(N2CCc3ccccc3C2C)c1C.Cl (stereo not drawn) [Example 28, 5-methyl-6-ethyl-2-(N-methylphenylamino)-4-(1-methyl-1,2,3,4-tetrahydroisoquinolin-2-yl)pyrimidine hydrochloride] | > 15 | 0.44 | 0.78 | 0.71
16 | Cc1cc(F)ccc1Nc1nc2c(c(N3CCc4ccccc4C3C)n1)CCC2 (stereo not drawn) [Example 29, hydrochloride] | 0.4 | 0.31 | 0.6 | 0.56
17 | CC1c2ccccc2CCN1c1nc(Nc2ccc(F)cc2)nc2c1CCC2 (stereo not drawn) [Example 30, hydrochloride] | ~8.4 | 0.2 | 0.39 | 0.33
18 | CC1c2ccccc2CCN1c1nc(N(C)c2ccccc2)nc2c1CCC2 (stereo not drawn) [Example 31, 2-(N-methylphenylamino)-4-(1-methyl-1,2,3,4-tetrahydroisoquinolin-2-yl)cyclopenta[d]pyrimidine hydrochloride] | ~15 | 0.21 | 0.74 | 0.83
19 | Cc1cc(F)ccc1Nc1nc2c(c(N3CCc4ccccc4C3C)n1)CCCC2.Cl (stereo not drawn) [Example 32, 2-(2-methyl-4-fluorophenylamino)-4-(1-methyl-1,2,3,4-tetrahydroisoquinolin-2-yl)-5,6,7,8-tetrahydroquinazoline hydrochloride] | 1.2 | 0.97 | 0.91 | 1.03
20 | Cc1cc(N2CCc3ccccc3C2)nc(Nc2ccc(F)cc2C)n1.Cl [Example 34, 6-methyl-2-(2-methyl-4-fluorophenylamino)-4-(1,2,3,4-tetrahydroisoquinolin-2-yl)pyrimidine hydrochloride] | 1 | 1 | 0.99 | 0.99
21 | Cc1cc(N2CCc3ccccc3C2)nc(Nc2ccc(F)cc2)n1.Cl [Example 35, 6-methyl-2-(4-fluorophenylamino)-4-(1,2,3,4-tetrahydroisoquinoline-2-yl)pyrimidine hydrochloride] | 2.5 | 0.84 | 0.94 | 1.05
